Data: patent US20230092648A1, “COMBINATION CONTAINING A DUOCARMYCIN DERIVATIVE-COMPRISING ANTIBODY-DRUG CONJUGATE AND THIOSULFATE” (BYONDIS B.V., priority 2020, published 2023)

Settings: formulations up to a concentration of 0.3 M STS; ocular route

## O=S(O)(O)=S [STS, sodium thiosulfate]
  adverse findings (local tolerance and toxicity): did not show adverse findings
